Measured values reported in PubChem BioAssay (NCI).
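Values below derive from 48-hour exposures of cells grown in 96-well plates, with endpoints linearly interpolated between the two concentrations bracketing the appropriate inhibition level. The concentration for 50% growth inhibition is given as GI50. At the TGI there is no net growth.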

Key:
Assay in all cases: NCI anticancer screen, dose series, 48 h
OVCAR-3 ovarian = tested on: OVCAR-3 ovarian
SF-295 CNS = tested on: SF-295 CNS
M14 melanoma = tested on: M14 melanoma
SF-539 CNS = tested on: SF-539 CNS
IGROV1 ovarian = tested on: IGROV1 ovarian
DU-145 prostate = tested on: DU-145 prostate
SN12C renal = tested on: SN12C renal
RXF 393 renal = tested on: RXF 393 renal
PC-3 prostate = tested on: PC-3 prostate
HS 578T breast = tested on: HS 578T breast
UACC-257 melanoma = tested on: UACC-257 melanoma
OVCAR-5 ovarian = tested on: OVCAR-5 ovarian
OVCAR-4 ovarian = tested on: OVCAR-4 ovarian
HCT-15 colon = tested on: HCT-15 colon
LOX IMVI melanoma = tested on: LOX IMVI melanoma
RPMI-8226 leukemia = tested on: RPMI-8226 leukemia
HCC-2998 colon = tested on: HCC-2998 colon
BT-549 breast = tested on: BT-549 breast
OVCAR-8 ovarian = tested on: OVCAR-8 ovarian
NCI-H226 lung = tested on: NCI-H226 lung
786-0 renal = tested on: 786-0 renal
SK-MEL-2 melanoma = tested on: SK-MEL-2 melanoma
MDA-MB-435 = tested on: MDA-MB-435
MDA-MB-231 breast = tested on: MDA-MB-231 breast
SW-620 colon = tested on: SW-620 colon
SNB-19 CNS = tested on: SNB-19 CNS
SK-OV-3 ovarian = tested on: SK-OV-3 ovarian
UO-31 renal = tested on: UO-31 renal
K-562 leukemia = tested on: K-562 leukemia
CAKI-1 renal = tested on: CAKI-1 renal
UACC-62 melanoma = tested on: UACC-62 melanoma
NCI-H522 lung = tested on: NCI-H522 lung
U251 CNS = tested on: U251 CNS
NCI-H23 lung = tested on: NCI-H23 lung
MOLT-4 leukemia = tested on: MOLT-4 leukemia
EKVX NSCLC = tested on: EKVX NSCLC
COLO 205 colon = tested on: COLO 205 colon
HCT-116 colon = tested on: HCT-116 colon
TK-10 renal = tested on: TK-10 renal
KM12 colon = tested on: KM12 colon
SR leukemia = tested on: SR leukemia
ACHN renal = tested on: ACHN renal
NCI/ADR-RES ovarian = tested on: NCI/ADR-RES ovarian
HOP-92 NSCLC = tested on: HOP-92 NSCLC
MALME-3M melanoma = tested on: MALME-3M melanoma
A549 NSCLC = tested on: A549 NSCLC
HOP-62 NSCLC = tested on: HOP-62 NSCLC
SF-268 CNS = tested on: SF-268 CNS
CCRF-CEM leukemia = tested on: CCRF-CEM leukemia
A498 renal = tested on: A498 renal
SK-MEL-5 melanoma = tested on: SK-MEL-5 melanoma
MCF7 breast = tested on: MCF7 breast
NCI-H460 lung = tested on: NCI-H460 lung

CCCCCCCCCCCCCCCCN1CC2CCCCC2C1 (stereo unspecified) gave a GI50 (OVCAR-3 ovarian) of 17.6 µM, a TGI (OVCAR-3 ovarian) of 34.1 µM and a GI50 (SF-295 CNS) of 14.6 µM. It also gave a TGI (SF-295 CNS) of 37 µM, a GI50 (M14 melanoma) of 2.93 µM and a TGI (M14 melanoma) of 9.22 µM. The GI50 (SF-539 CNS) was 5.52 µM, the TGI (SF-539 CNS) was 18.6 µM and the GI50 (IGROV1 ovarian) was 3.58 µM. It also gave a TGI (IGROV1 ovarian) of 12.2 µM, a GI50 (DU-145 prostate) of 3.85 µM and a TGI (DU-145 prostate) of 14.1 µM. It also gave a GI50 (SN12C renal) of 8.26 µM, a TGI (SN12C renal) of 21.3 µM and a GI50 (RXF 393 renal) of 2.3 µM. The TGI (RXF 393 renal) was 6.78 µM, the GI50 (PC-3 prostate) was 2.11 µM and the TGI (PC-3 prostate) was 5.56 µM. For the same compound, the GI50 (HS 578T breast) was 11.8 µM, the TGI (HS 578T breast) was 30.5 µM and the GI50 (UACC-257 melanoma) was 12.6 µM. For the same compound, the TGI (UACC-257 melanoma) was 27 µM, the GI50 (OVCAR-5 ovarian) was 5.33 µM and the TGI (OVCAR-5 ovarian) was 18.8 µM. It also gave a GI50 (OVCAR-4 ovarian) of 11.9 µM, a TGI (OVCAR-4 ovarian) of 25.9 µM and a GI50 (HCT-15 colon) of 6.79 µM. It also gave a TGI (HCT-15 colon) of 61.2 µM, a GI50 (LOX IMVI melanoma) of 3.77 µM and a TGI (LOX IMVI melanoma) of 13.8 µM. The GI50 (RPMI-8226 leukemia) was 1.97 µM, the TGI (RPMI-8226 leukemia) was 4.06 µM and the GI50 (HCC-2998 colon) was 2.17 µM. The TGI (HCC-2998 colon) was 5.44 µM, the GI50 (BT-549 breast) was 11.3 µM and the TGI (BT-549 breast) was 24.6 µM. It also gave a GI50 (OVCAR-8 ovarian) of 4.18 µM, a TGI (OVCAR-8 ovarian) of 17.6 µM and a GI50 (NCI-H226 lung) of 4.2 µM. The TGI (NCI-H226 lung) was 16.8 µM, the GI50 (786-0 renal) was 3.49 µM and the TGI (786-0 renal) was 14 µM. It also gave a GI50 (SK-MEL-2 melanoma) of 12.1 µM, a TGI (SK-MEL-2 melanoma) of 26.3 µM and a GI50 (MDA-MB-435) of 8.57 µM. For the same compound, the TGI (MDA-MB-435) was 24.3 µM, the GI50 (MDA-MB-231 breast) was 4.01 µM and the TGI (MDA-MB-231 breast) was 14 µM. The GI50 (SW-620 colon) was 3.87 µM, the TGI (SW-620 colon) was 15 µM and the GI50 (SNB-19 CNS) was 7 µM. The TGI (SNB-19 CNS) was 27.7 µM, the GI50 (SK-OV-3 ovarian) was 12.5 µM and the TGI (SK-OV-3 ovarian) was 29.7 µM. For the same compound, the GI50 (UO-31 renal) was 6 µM, the TGI (UO-31 renal) was 19.2 µM and the GI50 (K-562 leukemia) was 3.54 µM. The TGI (K-562 leukemia) was 11.2 µM, the GI50 (CAKI-1 renal) was 2.49 µM and the TGI (CAKI-1 renal) was 8.91 µM. It also gave a GI50 (UACC-62 melanoma) of 8.1 µM, a TGI (UACC-62 melanoma) of 21.1 µM and a GI50 (NCI-H522 lung) of 4.4 µM. It also gave a TGI (NCI-H522 lung) of 17 µM, a GI50 (U251 CNS) of 14.5 µM and a TGI (U251 CNS) greater than 100 µM. The GI50 (NCI-H23 lung) was 3.14 µM, the TGI (NCI-H23 lung) was 9.94 µM and the GI50 (MOLT-4 leukemia) was 1.92 µM. For the same compound, the TGI (MOLT-4 leukemia) was 4.28 µM, the GI50 (EKVX NSCLC) was 9.19 µM and the TGI (EKVX NSCLC) was 21.8 µM. The GI50 (COLO 205 colon) was 4.37 µM, the TGI (COLO 205 colon) was 17.7 µM and the GI50 (HCT-116 colon) was 2.97 µM. It also gave a TGI (HCT-116 colon) of 10.8 µM, a GI50 (TK-10 renal) of 11.2 µM and a TGI (TK-10 renal) of 26.1 µM. The GI50 (KM12 colon) was 5.15 µM, the TGI (KM12 colon) was 19.7 µM and the GI50 (SR leukemia) was 2.07 µM. It also gave a TGI (SR leukemia) of 4.64 µM, a GI50 (ACHN renal) of 15.7 µM and a TGI (ACHN renal) of 31.1 µM. It also gave a GI50 (NCI/ADR-RES ovarian) of 4.56 µM, a TGI (NCI/ADR-RES ovarian) of 16.8 µM and a GI50 (HOP-92 NSCLC) of 2.38 µM. The TGI (HOP-92 NSCLC) was 6.52 µM, the GI50 (MALME-3M melanoma) was 16.9 µM and the TGI (MALME-3M melanoma) was 35.3 µM. The GI50 (A549 NSCLC) was 4.09 µM, the TGI (A549 NSCLC) was 17 µM and the GI50 (HOP-62 NSCLC) was 12.5 µM. It also gave a TGI (HOP-62 NSCLC) of 25.7 µM, a GI50 (SF-268 CNS) of 69.2 µM and a TGI (SF-268 CNS) greater than 100 µM. It also gave a GI50 (CCRF-CEM leukemia) of 2.43 µM, a TGI (CCRF-CEM leukemia) of 6.56 µM and a GI50 (A498 renal) of 16.2 µM. The TGI (A498 renal) was 30.6 µM, the GI50 (SK-MEL-5 melanoma) was 5.84 µM and the TGI (SK-MEL-5 melanoma) was 19.5 µM. For the same compound, the GI50 (MCF7 breast) was 9.57 µM, the TGI (MCF7 breast) was greater than 100 µM and the GI50 (NCI-H460 lung) was greater than 100 µM. For the same compound, the TGI (NCI-H460 lung) was greater than 100 µM.
